# Results taken from US8871971B2, “Protection of normal cells” (priority 2002, dated 2014).
# What was measured:
# HeLa cells = experiment: Conversion of sulindac epimers to the sulfide in cells; type: in vitro ADME; settings: 200 μM epimer, 4 hours, serum-free medium
# Protocol: (§1) After incubation, the cells are collected, rinsed and lysed with acetonitrile. The cytosolic contents are separated on a C-18 column.
# [1] = tested on: Cancer Skin (skin SCC) cells; experiment: as above; type: in vitro ADME; settings: 200 μM epimer, 4 hours, serum-free medium
# Protocol: as §1
# Cancer Lung cells = experiment: as above; type: in vitro ADME; settings: 200 μM epimer, 4 hours, serum-free medium
# Protocol: as §1
# Normal Cardiomyocyte = experiment: as above; type: in vitro ADME; settings: 200 μM epimer, 4 hours, serum-free medium
# Protocol: as §1
# Normal Lung cells [2] = experiment: as above; type: in vitro ADME; settings: 200 μM epimer, 4 hours, serum-free medium
# Protocol: as §1
# Normal Lung cells [3] = experiment: Viability of normal lung cells exposed to TBHP (MTS assay); type: cell-based; settings: 500 μM for 48 hr, then TBHP 2 hr
# Protocol: Normal lung cells were treated with 500 μM sulindac-(R+S; near 50% each), 500 μM sulindac-R (>99% R; <1% S) or 500 μM sulindac-S (>99% S; <1% R) for 48 hr. The sulindac-R and sulindac-S samples were obtained from a racemic mixture of epimers using a chiral column analogous to the process described above. The cells were washed and then exposed to the indicated concentration of tert-Butyl Hydroperoxide (TBHP) for 2 hr. Cell viability was measured using the standard MTS assay. A background absorbance of 0.12 was subtracted from average of four replicate samples. The data are plotted as a bar graph because the concentrations are not in equal intervals. The error bars are the SEM of four replicate samples. The data are presented on three separate graphs using the untreated samples from that plate.
# MsrA from E. coli = MsrA from E. coli (Escherichia coli, UniProt P0A744); experiment: Reductase assay (NADPH oxidation): reduction of sulindac to sulindac sulfide by MsrA
# Protocol: Reductase assay. […] Incubations were performed at 37° C. for various times.
# At the end of incubation, 500 μl of 0.5 M Bis-Tris-Cl pH 5.5 and 3 ml of ethyl acetate were added. The tubes were mixed (vortexed) for 5 seconds (3 times). After separation, the organic phase was removed and another 3 ml of ethyl acetate were added. After mixing the organic phase was again removed.
# MsrB [4] = target: T1, MsrB (Escherichia coli, UniProt P0A746); experiment: Extraction reductase assay, sulindac as substrate; settings: 10 μg MsrB
# Description: (§2) Bacterial enzymes. […] The enzyme preparations had specific activities similar those reported earlier.
# fRMsr = fRMsr (Escherichia coli, UniProt P76270); experiment: Extraction reductase assay, sulindac as substrate; settings: 290 μg fRMsr
# Description: as §2
# MsrB [5] = target: T1, MsrB; experiment: Reductase assay with TLC of products; settings: 100 nmoles substrate, 21 μg MsrB, 15 mM DTT, 2 hours 37° C.
# Protocol: (§3) Reductase assay and thin layer chromatography (TLC). […] Incubation was carried out for 2 hours at 37° C., at the end of which the duplicate samples were combined and dried in a speed-vacuum unit at room temperature. The residue was suspended in 50 μl of ethanol, which was then loaded onto a silica gel TLC plate. The plate was developed with butanol: acetic acid:water (60:15:25) as the solvent. The compounds were visualized by their yellow color.
# [6] = tested on: Membrane Msr (mem-R,S-Msr); experiment: Extraction reductase assay, sulindac as substrate; type: biochemical, E. coli; settings: for Nmoles formed: 35 μg of membrane fraction
# fSMsr = experiment: Extraction reductase assay, sulindac as substrate; settings: 200 μg fSMsr
# Description: as §2
# MsrA [7] = target: T2, MsrA (Escherichia coli, UniProt P0A744); experiment: Reductase assay with TLC of products; settings: 100 nmoles substrate, 3 μg MsrA, 15 mM DTT, 2 hours 37° C.
# Protocol: as §3
# MsrA1 = experiment: Extraction reductase assay, sulindac as substrate; settings: 40 μg MsrA1
# Description: as §2
# G93A transgenic mice = experiment: G93A SOD1 transgenic mouse model of familial ALS; type: in vivo
# Protocol: Transgenic mice expressing a mutant form of SOD similar to that found in human ALS patients were used for this study. Transgenic male mice with a G93A human SOD1 (G1H/+) mutation (B6SJL-TgN (SOD1-G93A)1 Gur; Jackson Laboratories, ME) were used to breed with female B6SJL mice (Jackson Laboratories, ME). The F1 generations were genotyped for the G93A mutation with polymerase chain reaction (PCR) using tail DNA, and two specific primers from the SOD1 gene.
# Motor performance was assessed by Rotarod testing for each group and survival time was recorded.
# Motor function testing. Mice were trained for 2-3 days to become acquainted with the Rotarod apparatus (Columbus instruments, Columbus, Ohio). Rotarod performances were assessed in G93A mice starting at 60 days of age. The testing began with placing the mice on a rod that rotates at 12 rpms. The time period that the mice stayed on the rod before falling off was recorded as a measurement of the competence of their motor function. Three trials were performed, and the best result of the three trials was recorded representing the status of the motor performance. Mice were tested twice a week until they could no longer perform the task.
# Survival times. The initial sign of disease in G93A transgenic mice is a resting tremor that progresses to gait impairment, asymmetrical or symmetrical paralysis of the hind limbs, and ultimately complete paralysis at the end stage. Mice were sacrificed when they were unable to roll over within 20 seconds after being pushed on their side. This time point was determined to be the time of survival, at which time the mice were sacrificed.
# Light microscopic immunocytochemistry. Mice were perfused transcardially with cold 0.1M phosphate-buffered saline (PBS) for 1 minute followed by cold 4% paraformaldehyde in PBS for 10 minutes. The spinal cords were removed rapidly, blocked coronally, and post-fixed in 4% paraformaldehyde in PBS for 6 hours. Blocks were cryo-protected in 30% sucrose for 24 hours and were sectioned on a cryostat at a thickness of 35 micrometers. All protocols were conducted within NIH guidelines for animal research and were approved by the Institutional Animal Care and Use Committee (IACUC).
# Serial transverse sections (50 μm thick) were cut on a cryostat and collected for Nissl staining. Every fourth section was analyzed for neuronal volume and number using the optical fractionator and nucleator probes of the Stereo Investigator System (Microbrightfield, Colchester, Vt.). Six tissue sections of the lumbar spinal cord from each mouse were analyzed. All cells were counted from within the ventral horn below a horizontal line across the gray matter through the ventral border of the central canal. Photomicrographs were taken on a Zeiss Axiophot II microscope.
# Statistical analysis. Statistical analysis of survival was performed using Kaplan-Meier test for survival measured in postnatal days, Fisher's Test for mean age of death analysis, and Scheffe test for motor performance.
# PC-12 cells = experiment: Viability of PC-12 cells treated with MPP+ (trypan blue exclusion); type: cell-based; settings: for Dead cells (%) Exp 1 / Dead cells (%) Exp 2: 0.2 mM MPP+ 24 h
# MsrA [8] = target: T2, MsrA; experiment: Extraction reductase assay, sulindac as substrate; settings: 250 ng MsrA
# Description: as §2
# Drosophila = experiment: Survival of flies exposed to paraquat oxidative stress; type: in vivo; settings: for Flies alive: 2.5 mM paraquat, 2 mM sulindac; for Survival rate: 10 mM paraquat
# Protocol: Paraquat is a cytotoxic compound known to form superoxide radicals intracellularly. Three different concentrations of paraquat (i.e., 2.5 mM, 5 mM and 10 mM) were tested. […] After 3 days at 25° C., flies were transferred to test vials for counting.
# [9] = tested on: Sulindac reductase activity in calf liver; experiment: Sulindac reductase activity in calf liver fractions; type: biochemical, bovine; settings: mitochondria, S-100 and S-100 pellet of liver; preliminary evidence
# Protocol: Mammalian enzymes. […] To prepare mitochondria, the S10 pellets were suspended in 20 ml buffer A. […] The tubes were centrifuged at 24,000×g for 24 min. The pellets were resuspended in buffer A and centrifuged at 20,000×g for 15 min. The pellets (containing mitochondria) were suspended in 2 ml of buffer A. All fractions were stored at -80° C.
# rat hearts = experiment: Ischemia/reperfusion in Langendorff heart, LDH release; type: in vivo, rats; settings: 0.1 mg in diet for 2 days; ischemia 45 minutes, reperfusion 2 hours
# Protocol: […]. […] The hearts were removed, exposed to ischemia for 45 minutes and then perfused for 2 hours (reperfusion) using a Langendorff procedure. The cellular damage was measured by assaying for the release of lactic dehydrogenase (LDH).
# [10] = Tube 2: no MsrA, sulindac 5 μl (0.2M), thioredoxin 3 μl
# [11] = Tube 3: MsrA 1 μl (100 ng/μl), 20 min
# [12] = Tube 4: MsrA 2 μl (100 ng/μl), 20 min
# [13] = Tube 5: MsrA 4 μl (100 ng/μl), 20 min
# [14] = Tube 7: MsrA 2 μl (100 ng/μl), 10 min
# [15] = Tube 8: MsrA 2 μl (100 ng/μl), 30 min
# [16] = 0.1 mM sulindac 48 h pretreatment
# [17] = 0.2 mM sulindac 48 h pretreatment
# [18] = 0.5 mM sulindac 48 h pretreatment
# [19] = 0.5 mM sulindac pretreatment, 0.2 mM MPP+
# MsrA from E. coli, sequence (P0A744 whole entry): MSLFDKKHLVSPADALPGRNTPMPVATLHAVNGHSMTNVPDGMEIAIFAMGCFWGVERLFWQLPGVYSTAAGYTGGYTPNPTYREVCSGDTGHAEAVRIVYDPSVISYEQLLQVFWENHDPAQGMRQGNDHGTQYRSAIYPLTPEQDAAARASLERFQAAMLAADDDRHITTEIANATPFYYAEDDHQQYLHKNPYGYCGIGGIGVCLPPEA
# T2 sequence (P0A744 whole entry): as above
# T1 sequence (P0A746 whole entry): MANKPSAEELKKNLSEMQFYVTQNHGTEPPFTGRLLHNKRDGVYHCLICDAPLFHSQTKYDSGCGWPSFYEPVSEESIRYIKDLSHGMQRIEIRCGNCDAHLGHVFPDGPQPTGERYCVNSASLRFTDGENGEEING
# fRMsr, sequence (P76270 whole entry): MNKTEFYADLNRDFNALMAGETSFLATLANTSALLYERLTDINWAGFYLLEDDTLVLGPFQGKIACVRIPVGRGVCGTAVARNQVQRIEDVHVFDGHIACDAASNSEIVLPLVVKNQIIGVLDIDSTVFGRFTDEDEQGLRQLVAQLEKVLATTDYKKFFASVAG
smiles,measurement,setting,value
"CC1=C(CC(=O)O)c2cc(F)ccc2/C1=C\c1ccc([S@+](C)[O-])cc1 [S-epimer, S-sulindac sulfoxide]",Amount formed (picomoles),HeLa cells,7.9 picomoles
same,Amount formed (picomoles),[1],57 picomoles
same,Amount formed (picomoles),Cancer Lung cells,17.7 picomoles
same,Amount formed (picomoles),Normal Cardiomyocyte,120.9 picomoles
same,Amount formed (picomoles),Normal Lung cells [2],35 picomoles
same,TBHP concentration at which error bars begin to overlap,Normal Lung cells [3],~220 µM
same,TBHP concentration up to which protection is seen,Normal Lung cells [3],~180 µM
CC1=C(CC(=O)O)c2cc(F)ccc2/C1=C\c1ccc([S+](C)[O-])cc1 (stereo not shown) [Sulindac],OD340,MsrA from E. coli; [10],0.660
same,Sulindac sulfide,MsrA from E. coli; [10],0 nmol
same,OD340,MsrA from E. coli; [11],0.622
same,Sulindac sulfide,MsrA from E. coli; [11],5.8 nmol
same,Δ OD340,MsrA from E. coli; [11],0.038
same,OD340,MsrA from E. coli; [12],0.586
same,Sulindac sulfide,MsrA from E. coli; [12],11.2 nmol
same,Δ OD340,MsrA from E. coli; [12],0.074
same,OD340,MsrA from E. coli; [13],0.522
same,Sulindac sulfide,MsrA from E. coli; [13],21.0 nmol
same,Δ OD340,MsrA from E. coli; [13],0.138
same,OD340,"MsrA from E. coli; Tube 6: MsrA 2 μl, no thioredoxin, 20 min",0.684
same,OD340,MsrA from E. coli; [14],0.626
same,Sulindac sulfide,MsrA from E. coli; [14],5.2 nmol
same,Δ OD340,MsrA from E. coli; [14],0.034
same,OD340,MsrA from E. coli; [15],0.531
same,Sulindac sulfide,MsrA from E. coli; [15],19.4 nmol
same,Δ OD340,MsrA from E. coli; [15],0.129
same,Units of activity,MsrB [4],0 nmoles of SS formed per hour
same,Units of activity,fRMsr,0 nmoles of SS formed per hour
same,TBHP concentration after which protection declined rapidly,Normal Lung cells [3],80 to 100 µM
same,Substrate for MsrB (reduction products on TLC),MsrB [5],not a substrate for MsrB
same,Nmoles formed,[6],2.75 nmol
same,Units of activity,[6]; 50 μg membrane fraction,5.1 nmoles of SS formed per hour
same,Units of activity,fSMsr,0 nmoles of SS formed per hour
same,Substrate for MsrA (reduction products on TLC),MsrA [7],substrate for MsrA
same,Units of activity,MsrA1,<0.9 nmoles of SS formed per hour
same,Motor performance (Rotarod performance times),G93A transgenic mice; 300 PPM and 450 PPM groups vs G93A controls,significant improvement in motor performance
same,Mean survival time,G93A transgenic mice; 300 PPM in food from postnatal day 30,135.17 ± 11.4 days
same,Increase in survival over control mice,G93A transgenic mice; 450 PPM in food,7%
same,Average survival,G93A transgenic mice; 450 PPM in food from postnatal day 30,131.17 ± 10.9 days
same,"Scheffe for motor performance, Mean Diff.",G93A transgenic mice; Controls vs Sulindac 300 PPM,−59.443
same,"Scheffe for motor performance, Mean Diff.",G93A transgenic mice; Controls vs Sulindac 450 PPM,−73.119
same,"Scheffe for motor performance, Mean Diff.",G93A transgenic mice; Sulindac 300 PPM vs Sulindac 450 PPM,−13.676
same,Counts of motor neurons in spinal cord sections,G93A transgenic mice; vs G93A controls,significantly higher counts of motor neurons
same,Dead cells (%) Exp 1,PC-12 cells; [16],67%
same,Dead cells (%) Exp 2,PC-12 cells; [16],74%
same,Dead cells (%) Exp 1,PC-12 cells; [17],55%
same,Dead cells (%) Exp 2,PC-12 cells; [17],39%
same,Dead cells (%) Exp 1,PC-12 cells; [18],34%
same,Dead cells (%) Exp 2,PC-12 cells; [18],35%
same,Cell death,PC-12 cells; [19],approximately 35%
same,Cell survival,PC-12 cells; [19],~65%
same,Effect on viability of the cells,PC-12 cells; in the absence of MPP+,no effect on the viability of the cells
same,Units of activity,MsrA [8],11.3 nmoles of SS formed per hour
same,Flies alive,Drosophila; 3 day,approximately 95%
same,Flies alive,Drosophila; 6 day,~60%
same,Survival rate,Drosophila; after 2 days,~85%
same,Survival rate,Drosophila; after 3 days,~57%
C[S+]([O-])CC[C@H](N)C(=O)O (stereo partly shown) [Met-S—(O)],Effect of added excess Met(O) epimer on sulindac reductase activity,[9],inhibited the activity in all three fractions
"CC1=C(CC(=O)O)c2cc(F)ccc2/C1=C\c1ccc([S@@+](C)[O-])cc1 [R-epimer, R-sulindac sulfoxide]",Protection against TBHP compared with other forms,Normal Lung cells [3],protects better as compared to sulindac-(R+S) or Sulindac-S
same,TBHP concentration up to which protection is seen,Normal Lung cells [3],340 µM
same,Nmoles formed,[6],2.41 nmol
same,Protection of hearts from ischemia/reperfusion damage (LDH release),rat hearts,protects their hearts from oxidative damage
C[S@@+]([O-])CC[C@H](N)C(=O)O [Met-R—(O)],Effect of added excess Met(O) epimer on sulindac reductase activity,[9],only a slight effect
CSCCC(NC(=O)CC1=C(C)/C(=C/c2ccc([S+](C)[O-])cc2)c2ccc(F)cc21)C(=O)O (stereo not shown) [SMO],Substrate for MsrB (reduction products on TLC),MsrB [5],substrate for MsrB
same,Substrate for MsrA (reduction products on TLC),MsrA [7],substrate for MsrA
